PMC6273649, “Synthesis of Novel Quaternary Ammonium Salts and Their in Vitro Antileishmanial Activity and U-937 Cell Cytotoxicity” (Molecules, 2016)
In brackets after ≈: the same amount, converted by molar mass. Like-named read-outs stand apart in the source and are kept apart here.

Experiments:
in vitro = assay: in vitro
Protocol: (§1) U-937 promonocytes (CRL1593.2™) were obtained from the American Type Culture Collection (ATCC, Manassas, VA, USA), cultured in complete medium containing RPMI 1640 medium (Sigma) supplemented with 10% fetal bovine serum (FBS) (Gibco, Life Technologies, Grand Island, NY, USA) and 1% antibiotics (100 U/mL penicillin and 0.1 mg/mL streptomycin) (Sigma). Cells were maintained in standard conditions at 37 °C, 5% CO2 with change of medium every three days until use.
(§2) The cytotoxicity of compounds was assessed based on the viability of U-937 cells and evaluated by the MTT (3-(4,5-dimethylthiazol-2-yl)-2,5-diphenyltetrazolium bromide) method as described by others. Briefly, into each well of a 96-well cell-culture dishes 100,000 cells/100 μL were dispensed in RPMI-1640 supplemented with 10% FBS and 100 μL of the corresponding concentrations of the corresponding product. Six two fold serial dilutions were tested starting at 200 µg/mL (200, 100, 50, 25, 12.5 and 6.25 μg/mL). Cells were incubated at 37 °C with 5% CO2 for 72 h in the presence of compounds, and then the effect was determined by measuring the activity of the mitochondrial dehydrogenase by adding 10 µL/well of MTT solution (0.5 mg/mL) and incubating at 37 °C for 3 h. The reaction was stopped by adding 100 μL /well of 50% isopropanol solution with 10% sodium dodecyl sulfate for 30 min. Cell growth was determined based on the quantity of formazan produced, which was measured at 570 nm in a plate reader spectrophotometer (Bio-Rad, Hercules, CA, USA). Cells cultured in the absence of products were used as cell growth controls (negative control), while cells cultured in presence of amphotericin B (AmB, Sigma) and meglumine antimoniate (MA, Sanofi-Aventis, Bogotá, Colombia) were used as cytotoxicity controls (positive control). Each concentration was tested in triplicate in at least two independent experiments.
(§3) Cytotoxicity was determined according to the percentages of cell growth (viability) obtained for each tested compound or medium alone. Percentages of viability were calculated first using Equation (1): % Viability = (O.D. of treated cells)/(O.D. of untreated cells) × 100(1) where the O.D. of the untreated cells corresponds to 100% viability. Then, the percentage of cell growth inhibition was calculated using Equation (2): % Cell growth inhibition = 100 − % Viability(2)
(§4) The degree of cytotoxicity was established as convenient according to the LC50 values, using our own scale: high cytotoxicity: LC50 < 100 μg/mL, moderate cytotoxicity: 100 μg/mL < LC50 < 200 μg/mL; and potential non-cytotoxicity: LC50 > 200 μg/mL.

[1] = tested on: intracellular amastigotes of L. (V) panamensis-pIR-eGFP; assay: organism not typed; type: cell-based; conditions: for EC50: U-937, 72 h, read-out: Intracellular Amastigotes EC50; for degree of leishmanicidal activity, intracellular amastigotes: authors' own scale by EC50
Protocol: (§5) Virulent L. (V) panamensis MHOM/CO/87/UA140 strain transfected with green fluorescent protein gene called L. (V) panamensis-pIR-eGFP was maintained by successive passaging in golden hamsters (Mesocricetus auratus). Briefly, amastigotes were aspirated from cutaneous lesions of hamsters experimentally infected with promastigotes of L. (V) panamensis-pIR-eGFP. Samples were cultured in biphasic culture with Novy-MacNeal-Nicholle (NNN) medium as solid phase and PBS plus glucose, pH 6.9 as liquid phase and incubated at 26 °C to obtain promastigotes. Medium was changed every week until 2 months.
Intracellular amastigotes were obtained after infection of U-937 cells with promastigotes. Briefly, U-937 cells were dispensed in 24-well plates at a concentration of 300,000 cells/well and were treated with 1 µM of phorbol myristate acetate (PMA) (Sigma) for 48 h at 37 °C. Then, cells were infected with promastigotes in stationary growth phase (day 5) at a ratio of 1:15 cell/parasite and incubated for 3 h at 34 °C in 5% CO2. […] After 24 h of infection, cells were ready to be used in antileishmanial testing assay as described below.
The effect of compounds against intracellular amastigotes of L. (V) panamensis-pIR-eGFP was evaluated by flow cytometry using the methodology described by others. […] Infected and treated cells were maintained at 34 °C and 5% CO2 for 72 h. After 72 h, cells were washed twice with 1 mL of cold PBS and cells were removed from the bottom plate with a trypsin/EDTA ([…]) solution. Recovered cells were centrifuged at 1100 rpm for 10 min at 4 °C, the supernatant was discarded and cells were washed with 1 mL of cold PBS and centrifuged at 1100 rpm for 10 min at 4 °C. Supernatant was discarded and cells were suspended in 500 μL of PBS and analyzed by flow cytometry (FC 500MPL, Cytomics, Brea, CA, USA) using histogram analyses (Figure 2). […] Each concentration of compounds was tested in triplicate in two independent experiments.
The antileishmanial activity in intracellular amastigotes was determined according to the reduction of infected cells and parasite load (viable parasites inside infected cells) obtained for each experimental condition. The percentage of infected cell inhibition and parasite load for each concentration of each compound were calculated first using Equation (3): % infection = (% infected and treated cells ÷ % infected and untreated cells) × 100(3)
And then, the percentage of infection inhibition was calculated using Equation (4): % Inhibition = 100 − % infection(4)

[2] = tested on: axenic amastigotes of L. (V) panamensis; assay: organism not typed; type: cell-based; conditions: for EC50 / Axenic Amastigotes EC50: 72 h, mean ± standard deviation; for degree of leishmanicidal activity, axenic amastigotes: authors' own scale by EC50
Protocol: as §5
The axenic amastigotes were obtained from promastigotes cutured in Schneider’s medium, as described elsewhere. Briefly, promastigotes of L. (V) panamensis-pIR-eGFP at 5 × 10^6 parasites/mL were cultured in Schneider medium (Sigma), pH 5.4 supplemented with 20% FBS and 1% antibiotics and incubation at 26 °C. Every three days, medium was changed and temperature was increased one degree each time until it reached 32 °C at which the transformation of the promastigotes into axenic amastigotes is achieved. After three days of growing as axenic amastigotes, parasites were ready to be used in the antileishmanial testing assay as described below.
The ability of compounds to kill axenic amastigotes of L. (V) panamensis was determined based on the viability of the parasites after exposure to each compound evaluated by the MTT method following the methodology described by others. Axenic amastigotes obtained as described above were harvested, washed, and adjusted at 2 × 10^6 parasites/mL in fresh Schneider’s medium with 20% FBS. Into each well of a 96-well plate 100 µL of parasite suspension (2 × 10^5 axenic amastigotes) were dispensed and then 100 µL of each concentration of the corresponding compound were added. […] Plates were incubated at 32 °C. After 72 h of incubation, the effect of each compound was determined by adding 10 µL/well of MTT and incubating at 32 °C for 3 h. The reaction was stopped as described above and the quantity of formazan produced was measured in a plate reader spectrophotometer (Bio-Rad) set at 570 nm. Axenic amastigotes cultivated in the absence of any compound but maintained under the same conditions were used as controls for growth and viability (negative control) while parasites cultivated in the presence of MA were used as controls for leishmanicidal activity (positive control). Assays were performed at least twice with three replicates per each concentration tested.
In turn, activity of compounds with axenic amastigotes was determined according to the reduction of parasite growth percentages obtained for each experimental condition. The percentage of parasite growth was calculated first using Equation (5): % parasite growth = (O.D. treated ax. amastigotes)/(O.D. of untreated ax. amastigotes) × 100(5) where the O.D. of the untreated axenic amastigotes corresponds to 100% parasite growth. Then, the percentage of parasite growth inhibition was calculated using Equation (6): % parasite growth inhibition = 100 − % parasite growth(6)

U-937 cells = assay: in vitro; conditions: U-937 cells
Protocol: as §1, §2, §3, §4

[3] = L. (V) panamensis in U-937 cells, flow cytometry, 72 h, mean ± standard deviation
[4] = L. (V) panamensis axenic amastigotes, MTT, read-out: Axenic Amastigotes EC50
[5] = L. (V) panamensis axenic amastigotes, MTT

C[N+](C)(C)CCCC=C(c1ccccc1)c1ccccc1.[I-] [Compound 3b, N,N,N-Trimethyl-N-(5,5-diphenylpent-4-en-1-yl)ammonium iodide]
CC50 at 72 h (in vitro): 27.2 ± 0.7 µg/mL | EC50 [1, 3]: 24.7 ± 1.9 µg/mL | EC50 [2, 4]: 25 ± 0.5 µg/mL

C[N+](C)(CCl)CCCC=C(c1ccccc1)c1ccccc1.[I-] [Compound 1b, N-Chloromethyl-N,N-dimethyl-N-(5,5-diphenylpent-4-en-1-yl)ammonium iodide]
CC50 at 72 h (in vitro): 21 ± 2 µg/mL | EC50 [1, 3]: 46.8 ± 1.2 µg/mL | EC50 [2, 4]: 56.3 ± 3.7 µg/mL

C[N+](C)(CCl)CCC=C(c1ccccc1)c1ccccc1.[I-] [Compound 1a, N-Chloromethyl-N,N-dimethyl-N-(4,4-diphenylbut-3-en-1-yl)ammonium iodide]
CC50 at 72 h (in vitro): 44.4 ± 4.9 µg/mL | EC50 [1, 3]: 38.4 ± 0.2 µg/mL | EC50 [2, 4]: 35 ± 5.7 µg/mL

C[N+](C)(CI)CCCCC=C(c1ccccc1)c1ccccc1.[I-] [Compound 2c, N-Iodomethyl-N,N-dimethyl-N-(6,6-diphenylhex-5-en-1-yl)ammonium iodide]
CC50 at 72 h (in vitro): 9.5 ± 0.3 µg/mL | EC50 [1, 3]: 17.6 ± 1 µg/mL | EC50 [2, 4]: 14 ± 0.9 µg/mL

C[N+](C)(CI)CCCC=C(c1ccccc1)c1ccccc1.[I-] [Compound 2b, N-Iodomethyl-N,N-dimethyl-N-(5,5-diphenyl-4-penten-1-yl)ammonium iodide]
CC50 at 72 h (in vitro): 10.1 ± 0.2 µg/mL | EC50 [1, 3]: 24 ± 0.7 µg/mL | EC50 [2, 4]: 19.7 ± 1.5 µg/mL

C[N+](C)(C)CCO.[I-] [Compound 4c, (2-Hydroxyethyl)trimethylammonium iodide, reference compound]
CC50 at 72 h (in vitro): 372 ± 43.1 µg/mL | EC50 [1]: 150 ± 17.9 µg/mL | degree of leishmanicidal activity, intracellular amastigotes [1]: almost no activity | EC50 ([2]; read-out: Axenic Amastigotes EC50, L. (V) panamensis axenic amastigotes, MTT, 72 h): < 50 µg/mL | Axenic Amastigotes EC50 [2, 5]: 47.2 ± 7.1 µg/mL | degree of leishmanicidal activity, axenic amastigotes [2]: moderate activity

meglumine antimoniate [MA, reference compound]
Cytotoxicity LC50 (U-937 cells; MTT, 72 h, mean ± standard deviation): 358.2 ± 1.7 µg/mL | degree of cytotoxicity (U-937 cells; authors' own scale by LC50): potentially non-cytotoxic | Intracellular Amastigotes EC50 [1, 3]: 6.33 ± 0.86 µg/mL | Axenic Amastigotes EC50 [2, 5]: 312.1 ± 18.6 µg/mL | degree of leishmanicidal activity, axenic amastigotes [2]: not active

C[N+](C)(C)CCC=C(c1ccccc1)c1ccccc1.[I-] [Compound 3a, N,N,N-Trimethyl-N-(4,4-diphenylbut-3-en-1-yl)ammonium iodide]
CC50 at 72 h (in vitro): 39.2 ± 4.8 µg/mL | EC50 [1, 3]: 30 ± 1.4 µg/mL | degree of leishmanicidal activity, intracellular amastigotes [1]: moderate (moderate activity: 25 μg/mL < EC50 < 50 μg/mL) | EC50 [2, 4]: 25 ± 0.7 µg/mL | degree of leishmanicidal activity, axenic amastigotes [2]: high (high leishmanicidal activity: EC50 < 25 μg/mL)

C[N+](C)(CCl)CCCCC=C(c1ccccc1)c1ccccc1.[I-] [Compound 1c, N-Chloromethyl-N,N-dimethyl-N-(6,6-diphenylhex-5-en-1-yl)ammonium iodide]
CC50 at 72 h (in vitro): 21 ± 0.5 µg/mL | EC50 [1, 3]: 49.4 ± 3.1 µg/mL | EC50 [2, 4]: 40.5 ± 3.3 µg/mL

C[N+](C)(CCl)CCO [Compound 4a, N-Choromethyl-N,N-dimethyl-N-(2-hydroxyet-1-yl)ammonium iodide]
CC50 at 72 h (in vitro): 17.9 ± 0.02 µg/mL | EC50 [1, 3]: 29.6 ± 2.8 µg/mL | degree of leishmanicidal activity, intracellular amastigotes [1]: moderate (moderate activity: 25 μg/mL < EC50 < 50 μg/mL) | EC50 [2, 4]: 24.3 ± 1.3 µg/mL | degree of leishmanicidal activity, axenic amastigotes [2]: high (high leishmanicidal activity: EC50 < 25 μg/mL)

C[N+](C)(CI)CCO [Compound 4b, N-Iodomethyl-N,N-dimethyl-N-(2-hydroxyet-1-yl)ammonium iodide]
CC50 at 72 h (in vitro): 17.8 ± 0.2 µg/mL | EC50 [1, 3]: 23.9 ± 1 µg/mL | EC50 [2, 4]: 19.6 ± 1.8 µg/mL

C[C@@H]1[C@H](O)[C@@H](C)/C=C/C=C/C=C/C=C/C=C/C=C/C=C/[C@H](O[C@@H]2O[C@H](C)[C@@H](O)[C@H](N)[C@@H]2O)C[C@@H]2O[C@](O)(C[C@@H](O)C[C@@H](O)[C@H](O)CC[C@@H](O)C[C@@H](O)CC(=O)O[C@H]1C)C[C@H](O)[C@H]2C(=O)O [AmB, Amphotericin B, reference compound]
CC50 at 72 h (in vitro; human): 28.2 ± 0.5 µg/mL (≈ 30.5 µM)

C[N+](C)(C)CCCCC=C(c1ccccc1)c1ccccc1.[I-] [Compound 3c, N,N,N-Trimethyl-N-(6,6-diphenylhex-5-en-1-yl)ammonium iodide]
CC50 at 72 h (in vitro): 12.5 ± 0.8 µg/mL | EC50 [1, 3]: 41.6 ± 2.8 µg/mL | EC50 [2, 4]: 34.1 ± 5.1 µg/mL

C[N+](C)(CI)CCC=C(c1ccccc1)c1ccccc1.[I-] [Compound 2a, N-Iodomethyl-N,N-dimethyl-N-(4,4-diphenylbut-3-en-1-yl)ammonium iodide]
CC50 at 72 h (in vitro): 46 ± 5.4 µg/mL | EC50 [1, 3]: 27.8 ± 3.9 µg/mL | EC50 [2, 4]: 36.2 ± 0.1 µg/mL
